Experimental data from patent US9169290B2, “Peptides and their use” (priority 2007, dated 2015).
Values after ≈ are worked out from the molar mass of the structure shown. Like-named read-outs stand apart in the source and are kept apart here. Ends that are not written are not given here. Peptide text beside a SMILES is read from it.

How the values were obtained:
C. albicans = type: cell-based, Candida albicans
Experimental: (§1) Broth Dilution Antifungal Susceptibility Testing
(§2) The sensitivity of relevant fungal strains to the peptides was determined using Clinical Laboratory Standard Institute (CLSI; formerly NCCLS) Approved Standards.

C. krusei = type: cell-based, Candida krusei
Experimental: as §1, §2

Molecule	MIC, Candida albicans NCTC3179 (C. albicans)	MIC (C. albicans)	also measured
RWRWR [NP320, RWRWR]	>2000 µM		
N=C(N)NCCC[C@H](NC(=O)[C@H](CCCNC(=N)N)NC(=O)[C@H](CCCNC(=N)N)NC(=O)[C@H](CCCNC(=N)N)NC(=O)[C@H](CCCNC(=N)N)NC(=O)[C@H](CCCNC(=N)N)NC(=O)[C@H](CCCNC(=N)N)NC(=O)[C@H](CCCNC(=N)N)NC(=O)[C@H](CCCNC(=N)N)NC(=O)[C@H](CCCNC(=N)N)NC(=O)[C@H](CCCNC(=N)N)NC(=O)[C@H](CCCNC(=N)N)NC(=O)[C@@H](N)CCCNC(=N)N)C(=O)O [NP351]		4 µM (≈ 8.19 µg/mL)	MIC (C. krusei; C. krusei strain NCPF3953): 32 µM (≈ 65.6 µg/mL)
RRWRWRR [NP326, RRWRWRR]	2000 µM	1024 µM	MIC, Candida albicans ATCC24433 (C. albicans): 1024 µM; MIC, Candida albicans ATCC90028 (C. albicans): 1024 µM; MIC (C. krusei): 128 µM; MIC, Candida krusei NCPF3953 (C. krusei): 128 µM
RRWRR [NP322, RRWRR]	>2000 µM		
GKKEKPEKKVKK [NP331]	>2000 µM		
KKKKKKKKKKKKKKK [NP348]			MIC (C. albicans; C. albicans strain NCTC3179): >2048 µM
RRRRR [NP357, RRRRR]		>2048 µM	
KKKKKKK [NP344, KKKKKKK]		>2048 µM	
PKTKAKAKAKKGKGKD [NP336]	>2000 µM		
RRRRWWRRRR [NP329]	256 µM	1024 µM	MIC, Candida albicans ATCC24433 (C. albicans): 512 µM; MIC (C. krusei): 32 µM; MIC, Candida krusei NCPF3953 (C. krusei): 32 µM
KKKKKKKKK [NP345]		>2048 µM	
KVRQGTLKKAR [NP335]	>2000 µM		
RRRWRRR [NP325, RRRWRRR]	>2000 µM		
RRWRRWRR-OH [NP311]	>2000 µM		
KKKKKKKKKKKKK [NP347]			MIC (C. albicans; C. albicans strain NCTC3179): >2048 µM
RRWRWR [NP323, RRWRWR]	1024 µM		MIC, Candida albicans ATCC24433 (C. albicans): 1024 µM; MIC, Candida albicans ATCC90028 (C. albicans): 2000 µM; MIC (C. krusei): 256 µM; MIC, Candida krusei NCPF3953 (C. krusei): 256 µM
N=C(N)NCCC[C@H](NC(=O)[C@H](CCCNC(=N)N)NC(=O)[C@H](CCCNC(=N)N)NC(=O)[C@H](CCCNC(=N)N)NC(=O)[C@H](CCCNC(=N)N)NC(=O)[C@H](CCCNC(=N)N)NC(=O)[C@H](CCCNC(=N)N)NC(=O)[C@H](CCCNC(=N)N)NC(=O)[C@H](CCCNC(=N)N)NC(=O)[C@H](CCCNC(=N)N)NC(=O)[C@@H](N)CCCNC(=N)N)C(=O)O [NP350]		64 µM (≈ 111 µg/mL)	MIC (C. krusei): 8 µM (≈ 13.9 µg/mL)
KKKKKKKKKKK [NP346]		>2048 µM	
N=C(N)NCCC[C@H](NC(=O)[C@H](CCCNC(=N)N)NC(=O)[C@H](CCCNC(=N)N)NC(=O)[C@H](CCCNC(=N)N)NC(=O)[C@H](CCCNC(=N)N)NC(=O)[C@H](CCCNC(=N)N)NC(=O)[C@@H](N)CCCNC(=N)N)C(=O)O [NP358, RRRRRRR]		>2048 µM	
ILRWPWWPWRRK-NH2 [NP354]			MIC (C. krusei; C. krusei strain NCPF3953): >2048 µM
KKKKKEGKKQEKMLD [NP333]	>2000 µM		
KLTKPKPQAESKKKKK [NP332]	>2000 µM		
KKKKK [NP343, KKKKK]		>2048 µM	
KKKDKVKK [NP334]	>2000 µM		
RRWWR [NP321, RRWWR]	>2000 µM		
RRRWWRRR [NP327]	512 µM		MIC, Candida albicans ATCC24433 (C. albicans): 1024 µM; MIC, Candida albicans ATCC90028 (C. albicans): 512 µM; MIC, Candida krusei NCPF3953 (C. krusei): 64 µM
RRWWRR [NP324, RRWWRR]	1024 µM	1024 µM	MIC, Candida albicans ATCC24433 (C. albicans): 1024 µM; MIC, Candida albicans ATCC90028 (C. albicans): 1024 µM; MIC (C. krusei): 256 µM; MIC, Candida krusei NCPF3953 (C. krusei): 256 µM
N=C(N)NCCC[C@H](NC(=O)[C@H](CCCNC(=N)N)NC(=O)[C@@H](N)CCCNC(=N)N)C(=O)O [NP356, RRR] (H-Arg-Arg-Arg-OH; N-terminus and C-terminus assumed)		>2048 µM	
